Experimental findings from patent US20030216334A1, “Methods for inhibiting/treating hiv infections and aids related symptoms” (priority 2003, published 2003) are described below.

One series deals with HIV IIIB (wild type). Put plainly: Viral cytopathogenicity, tetrazolium-based colorimetric assay, IIIB. It counts as cell-based. As for the experimental part: (§1) Effect on Drug-Resistant Mutants. […] Viral cytopathogencity was determined by Serquest Inc., a Division of Southern Research Institute, Gaithersburg Md. using the tetrazolium-based calorimetric assay, and the data were analyzed using a program developed by the Southern Research Institute. A number of viruses were used in these studies, which include some that are resistant to both the NNRTIs and NRTIs.
On the technique in general: Protection from cytopathic effect is a common read-out in antiviral testing.

The next series relates to DPS-R (Y181C). Put plainly: microbe, parasite or virus in culture. It counts as cell-based, HIV. Particulars: Human immunodeficiency virus 1. On the procedure:
as §1

The next series has as its system L100I. The series can be described thus: microbe, parasite or virus in culture. Particulars: Human immunodeficiency virus 1, virus L100I. Type of series: cell-based, HIV. On the procedure: as §1
The next series deals with Y181C. The series can be described thus: microbe, parasite or virus in culture. Type of series: cell-based, HIV. Particulars: Human immunodeficiency virus 1. As for the experimental part:
as §1

A further series has as its system 4XAZT. The series can be described thus: microbe, parasite or virus in culture. Particulars: Human immunodeficiency virus 1. As for the experimental part:
as §1

A further series deals with NL4-3 (wild type). Put plainly: Viral cytopathogenicity, tetrazolium-based colorimetric assay, NL4-3. Particulars: Human immunodeficiency virus 1, NL43. As for the experimental part: as §1
Series [1] in a line: in vitro. On the procedure:
as §1

Series [2] concerns HeLa CD4 LTR β-gal and HL2/3 cells. Put plainly: Cell-to-cell fusion assay in the absence of virus. From the text: (§2) 2) Inhibition of HIV-1 attachment and entry into target cells.
For series [3], the system named is HIV-1 attachment and entry into target cells. The series can be described thus: microbe, parasite or virus in culture.
Source text: as §2

The target in another series is gp120 binding to CD4 (UniProt P01730+P04578). The series can be described thus: gp120/CD4 binding, cell-associated viral p24 antigen read-out.
Source text: as §2

The subject of another series is K103N. The series can be described thus: microbe, parasite or virus in culture. It counts as cell-based, HIV. Particulars: Human immunodeficiency virus 1, virus K103N. On the procedure: as §1
The nature of series [4]: in vitro. As for the experimental part: as §1
This is another data set of the same source.

Setting [5] is: Human immunodeficiency virus 1, IIIB.

pIC50: −log10 of the molar value. Converted amounts (≈) assume the structure as drawn.

Take `Cc1cn([C@H]2C[C@H](N=[N+]=[N-])[C@@H](CO)O2)c(=O)[nH]c1=O` [AZT, zidovudine]: the pIC50 – broadly, the IC50 on a negative log10 scale, so that one unit is a factor of ten – in the series on HIV IIIB (wild type) (setting [5]) is 8.52; in the series on HIV IIIB (wild type) (virus IIIB) it was 8.49; in the series with DPS-R (Y181C), 7.70; with L100I, 8.52; in the series with Y181C, 8.00; in the series on 4XAZT, no more than 6.00. In addition, the pIC50 with NL4-3 (wild type) is 7.22. In the series “in vitro [1]”, this compound came in with a CC50 of 1000 nM.
As for `COc1cc(-c2ccc(/N=N/c3ccc4c(S(=O)(=O)O)cc(S(=O)(=O)O)c(N)c4c3O)c(OC)c2)ccc1/N=N/c1ccc2c(S(=O)(=O)O)cc(S(=O)(=O)O)c(N)c2c1O` [CSB, Chicago Sky Blue], the IC50 (in general, the concentration at which inhibition is half-maximal) turned out to be 0.67 µg/mL (≈ 0.74 µM) in series [2] and 1.19 µg/mL (≈ 1.32 µM) in series [3] (Human immunodeficiency virus 1, HeLa). In addition, the TC50 in [2] (Fusion) and in [3] (Attachment) was greater than 10 µg/mL each time. Besides, at gp120 binding to CD4 (gp120/CD4 Binding), the TI amounted to 8.3. Also, the CC50 at gp120 binding to CD4 (human, HIV-1 infected HeLa CD4 LTR β-gal cells) is greater than 10 µg/mL.
Regarding `Cc1ccnc2c1NC(=O)c1cccnc1N2C1CC1` [Nevirapine, nevirapine], the pIC50 in the series with HIV IIIB (wild type) (setting [5]) is 7.52; in the series on DPS-R (Y181C), no more than 5.00; in the series on K103N, 5.49; in the series with L100I, 6.82; in the series on Y181C, 5.99; in the series with 4XAZT it was 7.30. Besides, the pIC50 with NL4-3 (wild type) is 7.22. For the same compound, the results for the CC50 in the series “in vitro [4]” and in the series “in vitro [1]” were 1000 nM and 10000 nM, respectively.
